Where “and” joins values, the source holds several entries; their conditions need not be identical. Identical values can stand only once.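 A five-concentration, 48-hour dose response in 96-well plates underlies each endpoint, interpolated linearly between surrounding concentrations. GI50 marks 50% less growth. TGI: concentration producing complete growth inhibition.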

36 compounds from PubChem BioAssay (NCI) can be followed below.

The assay has as its system MDA-MB-468 breast. Briefly: NCI anticancer screen, dose series, 48 h.
For `COc1cccc2c1[C@H](OC)[C@]13O[C@@]1(C2=O)[C@H](O)[C@H](C)[C@@](O)(C(=O)[C@@H]1O[C@H]1C)[C@@H]3O`, the GI50 is 204 nM and the TGI came to 480 nM.
The like results for `COc1ccc(S(=O)(=O)N2CCCCC2)cc1NC(=O)c1[nH]c(C)c2c1CCCCC2=O` were, in that order, 468 nM and 3900 nM.
In the case of `C=C(C)[C@@H]1CC[C@]2(C)[C@H](CC=C3[C@@H]4CC(C)(C)CC[C@]4(C(=O)OC)CC[C@]32C)[C@@]1(C)CC/C(N)=N/O`, the GI50 is 1850 nM and the TGI amounted to 5060 nM.
`COc1ccc(/C=C2/CCOC2=O)cc1`: the GI50 is more than 100000 nM and the TGI was more than 100000 nM.
With `C=C(C)[C@@H]1CC[C@]2(c3ncc(C)o3)CC[C@]3(C)[C@H](CC[C@@H]4[C@@](C)(CCC#N)[C@H](C(=C)C)CC[C@]43C)[C@@H]12`, the GI50 is 3000 nM and the TGI worked out at 12900 nM.
For the compound `COc1cc(/C=C\c2cc(/C=C\c3ccc(O)c(OC)c3)n(C(=O)Nc3ccc(C(F)(F)F)cc3)n2)ccc1O`, the GI50 was 2300 nM and the TGI worked out at 6250 nM.
As for `C[C@]1(O)CC(=O)[C@]2(O)C3=C(C=C[C@]2(O)C1)C(=O)c1c(O)cccc1C3=O`, the GI50 is 1700 nM and the TGI stood at 3870 nM.
For the compound `N#C/C(=C/c1cccs1)c1cccs1`, the GI50 was 24100 nM and the TGI is more than 100000 nM.
In the case of `CCCN(CCC)c1ccc(C=O)c(OC)c1`, the GI50 is 6220 nM and the TGI came to 63000 nM.
The like results for `CC(=O)OC1CC(C)c2c1ncnc2N1CCN(C(=O)OC(C)(C)C)CC1` (configuration not stated) were, in that order, 33900 nM and more than 100000 nM.
Turning to `CCCCCCCCCCCCCCCC[N+](C)(C)C`, the GI50 was 118 nM and 328 nM; the TGI is 361 nM and 1930 nM.
For the compound `CN1CCN(c2ccc3nc(-c4ccc5nc(-c6ccc(C(F)(F)F)cc6)[nH]c5c4)[nH]c3c2)CC1`, the GI50 was 1850 nM and the TGI was determined as 3650 nM.
`CN([N-]C(=O)CC(=O)[N-]N(C)C(=S)c1ccccc1)C(=S)c1ccccc1.[Cu+2]`: the GI50 was less than 10 nM and the TGI was 38.6 nM.
For the compound `COc1cccc2c1C(=O)c1c(O)c3c(c(O)c1C2=O)C[C@@](O)(C(=O)COC(=O)c1cccnc1)C[C@@H]3OC1CC(N)C(O)C(C)O1` (some centres not stated), the GI50 is 136 nM and the TGI was determined as 465 nM.
The like results for `CCc1nc2cc(/C=C/C(=O)NO)c(F)cc2c(=O)n1CCc1ccccc1` were, in that order, 474 nM and 2920 nM.
The like results for `CCN(CCc1ccc(F)cc1)c1ccc(CO)c(Cl)c1` were, in that order, 217 nM and 724 nM.
The like results for `CCCCCn1ncc(-c2c(O)c(O)cc3c(O)c(-c4c(C)cc5c(-c6cnn(CCCCC)n6)c(O)c(O)cc5c4O)c(C)cc23)n1` were, in that order, 102 nM and 3760 nM.
For `CC(C)NCCCNC1=C(Cl)C(=O)c2ccccc2C1=O`, the GI50 was 2850 nM and the TGI was determined as 8780 nM.
On to `CC(C)(C)c1ccc(NC(=O)c2cc(=O)c3ccccc3[nH]2)c(C(C)(C)C)c1O`, for which the GI50 is 7870 nM and the TGI worked out at 21900 nM.
Consider `O=c1cc(-c2ccccc2)oc2cc(OCc3cn(Cc4ccc(F)cc4)nn3)cc(O)c12`, for which the GI50 is 20000 nM and the TGI was more than 100000 nM.
Regarding `Cc1cc2cc(Oc3ccnc(Nc4cccc(CS(=O)(=O)NCCN(C)C)c4)n3)ccc2[nH]1`, the GI50 is 6490 nM and the TGI stood at 21300 nM.
As for `Cc1cc(C)c(S(=O)(=O)Oc2ccccc2[N+](=O)[O-])c(C)c1`, the GI50 is 1480 nM and the TGI turned out to be 5620 nM.
Turning to `COc1cc(C)c(N(C)C(=O)CN(C)C)cc1Nc1nc(Nc2cccc(F)c2C(N)=O)c2cc[nH]c2n1`, the GI50 is 14500 nM and the TGI is more than 25000 nM.
For the compound `CCOc1ccc2c(-c3ccnc(Nc4cccc(C(F)(F)F)c4)n3)cnn2n1`, the GI50 is 1140 nM and the TGI was more than 25000 nM.
Regarding `CCCCn1c(=O)c(/C=C/C(=O)/C=C/c2ccc(O)c(OC)c2)cc2ccc(Cl)cc21`, the GI50 is 1460 nM and the TGI was found to be 4370 nM.
As for `CCCCCCCCOC(=O)c1cc(O)c(O)c(O)c1`, the GI50 was 3490 nM and the TGI was determined as 16700 nM.
With `COc1ccc(CNCCCN2C(=O)c3ccc4c5c(ccc(c35)C2=O)C(=O)N(CCCNCCCCNCCCN)C4=O)c(OC)c1OC`, the GI50 is 155 nM and the TGI was determined as 334 nM.
As to `COc1cc2c(C#N)n3c(c2cc1OC)C(=O)C(c1ccccc1)Oc1ccccc1-3` (configuration not stated), the GI50 was 4680 nM and the TGI was more than 100000 nM.
As for `Cc1ccc2nc(NC(=O)CSC(=S)N3CCN(Cc4ccccc4)CC3)sc2c1`, the GI50 is more than 100000 nM and the TGI was more than 100000 nM.
Regarding `COc1ccccc1NC(=O)N/C(N)=N/c1nc2ccccc2s1`, the GI50 was 299 nM and the TGI was more than 100000 nM.
Turning to `COc1ncnc2c1ncn2C/C(Br)=C(\Br)CCl`, the GI50 was 1560 nM and the TGI was determined as 3290 nM.
On to `CC(=O)O[C@H]1CC[C@]2(C)[C@H]3C(=O)C=C4[C@@H]5C[C@](C)(C(=O)N6CCCNCC6)CC[C@]5(C)CC[C@@]4(C)[C@]3(C)CC[C@H]2C1(C)C`, for which the GI50 was 1700 nM and the TGI stood at 3560 nM.
On to `CN1CCN(c2ccc(NC3=C(Cl)C(=O)c4ncccc4C3=O)cc2C(F)(F)F)CC1`, for which the GI50 was 746 nM and the TGI was found to be 2690 nM.
As to `CCN(CC)CCNc1ccc(CO)c2sc3ccccc3c(=O)c12`, the GI50 was 1250 nM and the TGI came to 3030 nM.
The like results for `COc1ccc(-n2nc(C)c3c(Nc4ccc(NC(=O)Nc5cc(C(F)(F)F)ccc5F)cc4)ncnc32)cc1` were, in that order, 2480 nM and 6140 nM.
In the case of `COc1ccc(OC)c(-c2cn3nc(-c4c[nH]c5ccc(Br)cc45)sc3n2)c1`, the GI50 is 2940 nM and the TGI was 8410 nM.
